Reference: the supplement of paper PMC10307832

Key:
Assay in all cases: relative viability (nuclei count vs DMSO), 5 days (fraction); higher = more cells survive
[1] = compound: CS(=O)(=O)N1CCN(Cc2cc3nc(-c4cccc5[nH]ncc45)nc(N4CCOCC4)c3s2)CC1 [Pictilisib] + COc1cccc2cc(-c3nc([C@H]4CC[C@H](C(=O)O)CC4)n4ncnc(N)c34)[nH]c12 [OSI-027] (partner 0.5 µM)
Procedure, shortened: (§1)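 Lung cancer cell lines were pin-tool dosed in 1536-well plates on the day after seeding, with either a lone drug or a fixed anchor-drug dose plus five library-drug doses (not always all listed) in √10 steps. Nuclei were counted on 4× images after 5 days. Relative viability is the ratio of treated-well to vehicle-well nuclei counts, with each value a median of duplicate plates.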

[2] = compound: CS(=O)(=O)N1CCN(Cc2cc3nc(-c4cccc5[nH]ncc45)nc(N4CCOCC4)c3s2)CC1 [Pictilisib] + C[C@@H](Oc1cc(-c2cnn(C3CCNCC3)c2)cnc1N)c1c(Cl)ccc(F)c1Cl [Crizotinib] (partner 1 µM)
Procedure, shortened: as §1

[3] = compound: NC1(c2ccc(-c3nc4ccn5c(=O)[nH]nc5c4cc3-c3ccccc3)cc2)CCC1 [MK-2206] + CC(=O)c1c(C)c2cnc(Nc3ccc(N4CCNCC4)cn3)nc2n(C2CCCC2)c1=O [Palbociclib] (partner 0.5 µM)
Procedure, shortened: as §1

[4] = compound: CS(=O)(=O)N1CCN(Cc2cc3nc(-c4cccc5[nH]ncc45)nc(N4CCOCC4)c3s2)CC1 [Pictilisib] + Cc1nc(NC(=O)N2CCC[C@H]2C(N)=O)sc1-c1ccnc(C(C)(C)C(F)(F)F)c1 [Alpelisib] (partner 2 µM)
Procedure, shortened: as §1

[5] = compound: CS(=O)(=O)N1CCN(Cc2cc3nc(-c4cccc5[nH]ncc45)nc(N4CCOCC4)c3s2)CC1 [Pictilisib] + Cc1nc(Nc2ncc(C(=O)Nc3c(C)cccc3Cl)s2)cc(N2CCN(CCO)CC2)n1 [Dasatinib] (partner 0.075 µM)
Procedure, shortened: as §1

Cell Line | relative viability ([1]; first compound 0.02 µM) | relative viability ([1]; first compound 0.06325 µM) | relative viability ([1]; first compound 0.6325 µM) | relative viability ([1]; first compound 2 µM) | relative viability ([2]; first compound 0.02 µM) | relative viability ([2]; first compound 0.06325 µM) | relative viability ([2]; first compound 0.6325 µM) | relative viability ([2]; first compound 2 µM) | relative viability ([3]; first compound 0.01 µM) | relative viability ([3]; first compound 0.03162 µM) | relative viability ([3]; first compound 0.3162 µM) | relative viability ([3]; first compound 1 µM) | relative viability ([4]; first compound 0.02 µM) | relative viability ([4]; first compound 0.06325 µM) | relative viability ([4]; first compound 0.6325 µM) | relative viability ([4]; first compound 2 µM) | relative viability ([5]; first compound 0.02 µM) | relative viability ([5]; first compound 0.06325 µM) | relative viability ([5]; first compound 0.6325 µM) | relative viability ([5]; first compound 2 µM)
HCC-44 | 0.587 | 0.5 | 0.405 | 0.266 | 0.781 | 0.783 | 0.882 | 0.455 | 0.918 | 0.938 | 0.974 | 0.946 | 0.893 | 0.79 | 0.674 | 0.412 | – | – | – | –
HCC-78 | 0.334 | 0.376 | 0.285 | 0.275 | 0.321 | 0.305 | 0.222 | 0.18 | 0.426 | 0.489 | 0.496 | 0.398 | 0.332 | 0.279 | 0.289 | 0.19 | 0.379 | 0.359 | 0.222 | 0.189
HCC-366 | 0.955 | 0.822 | 0.432 | 0.104 | 0.493 | 0.697 | 0.251 | 0.0577 | 0.392 | 0.38 | 0.225 | 0.244 | 0.452 | 0.386 | 0.335 | 0.174 | 0.537 | 0.566 | 0.193 | 0.0747
HCC-827 | 0.824 | 0.696 | 0.338 | 0.192 | 0.901 | 0.991 | 0.921 | 0.548 | 0.568 | 0.542 | 0.292 | 0.344 | 1.02 | 0.829 | 0.892 | 0.518 | 0.357 | 0.242 | 0.183 | 0.136
HOP-62 | 0.929 | 0.868 | 0.666 | 0.535 | 1.07 | 0.972 | 1.01 | 0.671 | 0.407 | 0.468 | 0.452 | 0.485 | 1.09 | 0.854 | 0.788 | 0.935 | 0.627 | 0.573 | 0.43 | 0.26
IA-LM | – | – | – | – | 0.649 | 0.75 | 0.628 | 0.534 | – | – | – | – | 0.732 | 0.982 | 0.749 | 0.418 | – | – | – | –
LC-2-ad | 0.881 | 0.781 | 0.475 | 0.396 | 0.443 | 0.52 | 0.392 | 0.359 | 0.488 | 0.523 | 0.51 | 0.499 | 0.918 | 0.828 | 0.634 | 0.484 | 0.739 | 0.516 | 0.248 | 0.177
LCLC-97TM1 | 0.4 | 0.488 | 0.301 | 0.253 | 0.236 | 0.277 | 0.317 | 0.159 | 0.264 | 0.233 | 0.191 | 0.198 | 0.268 | 0.353 | 0.265 | 0.176 | 0.8 | 0.919 | 0.781 | 0.602
LCLC-103H | 0.494 | 0.438 | 0.287 | 0.262 | 1.05 | 1.04 | 0.882 | 0.71 | 0.496 | 0.499 | 0.461 | 0.462 | 0.946 | 1.03 | 0.818 | 0.848 | 0.457 | 0.547 | 0.367 | 0.142
NCI-H522 | 0.635 | 0.719 | 0.64 | 0.57 | – | – | – | – | 1.04 | 1.12 | 1.05 | 1.09 | – | – | – | – | 0.75 | 0.984 | 0.79 | 0.664
NCI-H596 | 0.719 | 0.729 | 0.353 | 0.296 | 0.91 | 1.05 | 0.631 | 0.354 | – | – | – | – | 0.476 | 0.481 | 0.523 | 0.36 | 0.569 | 0.537 | 0.325 | 0.207
NCI-H1299 | – | – | – | – | 0.99 | 1.03 | 1.05 | 0.933 | – | – | – | – | 1.06 | 1.07 | 1.08 | 1.04 | – | – | – | –
NCI-H1395 | 0.796 | 0.658 | 0.568 | 0.392 | – | – | – | – | 0.65 | 0.664 | 0.485 | 0.526 | 1.11 | 1.03 | 0.855 | 0.531 | 0.406 | 0.392 | 0.296 | 0.265
NCI-H1563 | 0.737 | 0.713 | 0.554 | 0.57 | 0.924 | 0.889 | 0.761 | 0.581 | – | – | – | – | 1.06 | 0.851 | 0.724 | 0.591 | 0.431 | 0.39 | 0.356 | 0.316
NCI-H1623 | 0.431 | 0.414 | 0.342 | 0.244 | – | – | – | – | – | – | – | – | – | – | – | – | 0.55 | 0.487 | 0.472 | 0.251
NCI-H1648 | 0.256 | 0.248 | 0.275 | 0.266 | – | – | – | – | 0.229 | 0.269 | 0.301 | 0.331 | – | – | – | – | – | – | – | –
NCI-H1650 | 0.677 | 0.713 | 0.368 | 0.207 | 1.02 | 1.1 | 1.2 | 0.395 | 0.291 | 0.334 | 0.331 | 0.356 | – | – | – | – | 0.406 | 0.277 | 0.174 | 0.16
NCI-H1703 | – | – | – | – | 0.532 | 0.666 | 0.261 | 0.178 | – | – | – | – | 0.435 | 0.314 | 0.227 | 0.195 | – | – | – | –
NCI-H1793 | 0.255 | 0.236 | 0.185 | 0.149 | – | – | – | – | 0.277 | 0.329 | 0.272 | 0.252 | 0.729 | 0.516 | 0.566 | 0.307 | 0.361 | 0.39 | 0.351 | 0.243
NCI-H2342 | 0.541 | 0.605 | 0.551 | 0.417 | – | – | – | – | 0.58 | 0.51 | 0.469 | 0.473 | – | – | – | – | 0.263 | 0.305 | 0.289 | 0.267
SW 900 | 0.655 | 0.715 | 0.501 | 0.289 | – | – | – | – | 0.582 | – | 0.532 | 0.423 | – | – | – | – | 0.577 | 0.547 | 0.264 | 0.255
